How the values were obtained:
[1] = target: Rho-associated protein kinase 2 (Homo sapiens, UniProt O75116); experiment: Inhibition of Rock2
[2] = target: Vascular endothelial growth factor receptor 2 (Homo sapiens, UniProt P35968); experiment: Inhibition of KDR
[3] = target: Serine/threonine-protein kinase PAK 4 (Homo sapiens, UniProt O96013); experiment: Inhibition of Pak4
[4] = target: Glycogen synthase kinase-3 beta (Homo sapiens, UniProt P49841); experiment: Inhibition of GSK3-beta
[5] = target: Serine/threonine-protein kinase pim-1 (Homo sapiens, UniProt P11309); experiment: Inhibition of Pim1
[6] = target: Epidermal growth factor receptor (Homo sapiens, UniProt P00533); experiment: Inhibition of EGFR
[7] = target: Tyrosine-protein kinase JAK2 (Homo sapiens, UniProt O60674); experiment: Inhibition of JAK2
Tyrosine-protein kinase JAK2, sequence (O60674 whole entry): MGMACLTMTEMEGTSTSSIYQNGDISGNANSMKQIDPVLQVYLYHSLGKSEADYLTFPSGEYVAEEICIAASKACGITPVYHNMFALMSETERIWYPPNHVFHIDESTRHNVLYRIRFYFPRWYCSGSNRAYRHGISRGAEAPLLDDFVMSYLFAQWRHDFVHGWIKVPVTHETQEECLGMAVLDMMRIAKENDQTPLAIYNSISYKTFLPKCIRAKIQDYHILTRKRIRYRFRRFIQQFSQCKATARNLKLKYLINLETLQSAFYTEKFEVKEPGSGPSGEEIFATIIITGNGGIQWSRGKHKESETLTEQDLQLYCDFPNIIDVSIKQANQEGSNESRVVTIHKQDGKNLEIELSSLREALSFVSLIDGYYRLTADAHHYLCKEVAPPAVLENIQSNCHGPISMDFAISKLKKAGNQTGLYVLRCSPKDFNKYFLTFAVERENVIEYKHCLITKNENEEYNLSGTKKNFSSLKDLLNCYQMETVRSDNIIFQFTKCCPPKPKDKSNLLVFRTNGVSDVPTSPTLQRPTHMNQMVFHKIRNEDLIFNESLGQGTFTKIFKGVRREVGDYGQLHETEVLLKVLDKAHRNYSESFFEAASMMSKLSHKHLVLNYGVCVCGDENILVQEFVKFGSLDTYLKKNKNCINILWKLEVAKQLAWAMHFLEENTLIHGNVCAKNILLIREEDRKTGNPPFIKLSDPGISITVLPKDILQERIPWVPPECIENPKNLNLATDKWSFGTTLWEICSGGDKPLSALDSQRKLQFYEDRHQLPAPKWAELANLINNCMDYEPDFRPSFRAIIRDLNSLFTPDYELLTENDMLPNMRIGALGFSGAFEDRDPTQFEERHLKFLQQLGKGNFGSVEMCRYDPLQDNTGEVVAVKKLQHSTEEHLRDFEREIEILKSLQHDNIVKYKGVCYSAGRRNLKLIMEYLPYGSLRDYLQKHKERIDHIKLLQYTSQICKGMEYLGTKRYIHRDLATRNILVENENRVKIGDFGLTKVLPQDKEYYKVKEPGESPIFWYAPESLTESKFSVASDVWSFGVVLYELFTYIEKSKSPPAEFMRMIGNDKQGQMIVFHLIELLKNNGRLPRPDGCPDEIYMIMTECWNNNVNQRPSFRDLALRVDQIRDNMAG

Rho-associated protein kinase 2, sequence (O75116 whole entry): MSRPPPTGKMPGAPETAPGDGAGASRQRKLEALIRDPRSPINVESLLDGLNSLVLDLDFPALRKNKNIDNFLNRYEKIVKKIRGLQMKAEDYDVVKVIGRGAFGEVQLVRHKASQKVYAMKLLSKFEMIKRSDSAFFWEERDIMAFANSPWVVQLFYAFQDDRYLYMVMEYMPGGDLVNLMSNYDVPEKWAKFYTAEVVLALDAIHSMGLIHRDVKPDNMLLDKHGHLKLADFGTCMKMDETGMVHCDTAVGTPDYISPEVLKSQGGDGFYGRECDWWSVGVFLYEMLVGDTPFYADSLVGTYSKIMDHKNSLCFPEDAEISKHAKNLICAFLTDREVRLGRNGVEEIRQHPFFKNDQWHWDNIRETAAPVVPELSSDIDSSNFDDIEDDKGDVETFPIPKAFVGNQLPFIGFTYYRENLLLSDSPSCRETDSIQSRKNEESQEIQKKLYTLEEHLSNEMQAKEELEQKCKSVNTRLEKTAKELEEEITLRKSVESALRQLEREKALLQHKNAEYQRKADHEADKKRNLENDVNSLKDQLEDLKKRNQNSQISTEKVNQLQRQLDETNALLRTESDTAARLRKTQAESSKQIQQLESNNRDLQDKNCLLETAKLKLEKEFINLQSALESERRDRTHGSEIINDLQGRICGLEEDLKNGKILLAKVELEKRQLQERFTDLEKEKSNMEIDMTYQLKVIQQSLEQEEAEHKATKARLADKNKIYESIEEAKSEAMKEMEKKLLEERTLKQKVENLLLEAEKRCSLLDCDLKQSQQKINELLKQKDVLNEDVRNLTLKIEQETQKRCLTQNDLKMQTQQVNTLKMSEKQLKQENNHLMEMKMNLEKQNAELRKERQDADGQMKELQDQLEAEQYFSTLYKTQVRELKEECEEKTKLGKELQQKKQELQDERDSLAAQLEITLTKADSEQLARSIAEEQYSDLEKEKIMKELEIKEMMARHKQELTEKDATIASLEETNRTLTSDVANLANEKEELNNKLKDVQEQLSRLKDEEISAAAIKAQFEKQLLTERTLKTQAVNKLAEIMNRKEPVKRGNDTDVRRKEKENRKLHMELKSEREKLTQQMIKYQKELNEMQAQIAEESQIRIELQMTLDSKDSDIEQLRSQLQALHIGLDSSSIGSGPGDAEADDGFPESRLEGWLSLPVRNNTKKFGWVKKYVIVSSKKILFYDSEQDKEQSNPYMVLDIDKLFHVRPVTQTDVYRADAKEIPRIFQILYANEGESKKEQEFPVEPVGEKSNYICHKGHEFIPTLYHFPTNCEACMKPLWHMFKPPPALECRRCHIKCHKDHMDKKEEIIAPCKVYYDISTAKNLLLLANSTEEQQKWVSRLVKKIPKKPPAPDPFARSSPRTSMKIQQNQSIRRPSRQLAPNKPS
Epidermal growth factor receptor, sequence (P00533 whole entry): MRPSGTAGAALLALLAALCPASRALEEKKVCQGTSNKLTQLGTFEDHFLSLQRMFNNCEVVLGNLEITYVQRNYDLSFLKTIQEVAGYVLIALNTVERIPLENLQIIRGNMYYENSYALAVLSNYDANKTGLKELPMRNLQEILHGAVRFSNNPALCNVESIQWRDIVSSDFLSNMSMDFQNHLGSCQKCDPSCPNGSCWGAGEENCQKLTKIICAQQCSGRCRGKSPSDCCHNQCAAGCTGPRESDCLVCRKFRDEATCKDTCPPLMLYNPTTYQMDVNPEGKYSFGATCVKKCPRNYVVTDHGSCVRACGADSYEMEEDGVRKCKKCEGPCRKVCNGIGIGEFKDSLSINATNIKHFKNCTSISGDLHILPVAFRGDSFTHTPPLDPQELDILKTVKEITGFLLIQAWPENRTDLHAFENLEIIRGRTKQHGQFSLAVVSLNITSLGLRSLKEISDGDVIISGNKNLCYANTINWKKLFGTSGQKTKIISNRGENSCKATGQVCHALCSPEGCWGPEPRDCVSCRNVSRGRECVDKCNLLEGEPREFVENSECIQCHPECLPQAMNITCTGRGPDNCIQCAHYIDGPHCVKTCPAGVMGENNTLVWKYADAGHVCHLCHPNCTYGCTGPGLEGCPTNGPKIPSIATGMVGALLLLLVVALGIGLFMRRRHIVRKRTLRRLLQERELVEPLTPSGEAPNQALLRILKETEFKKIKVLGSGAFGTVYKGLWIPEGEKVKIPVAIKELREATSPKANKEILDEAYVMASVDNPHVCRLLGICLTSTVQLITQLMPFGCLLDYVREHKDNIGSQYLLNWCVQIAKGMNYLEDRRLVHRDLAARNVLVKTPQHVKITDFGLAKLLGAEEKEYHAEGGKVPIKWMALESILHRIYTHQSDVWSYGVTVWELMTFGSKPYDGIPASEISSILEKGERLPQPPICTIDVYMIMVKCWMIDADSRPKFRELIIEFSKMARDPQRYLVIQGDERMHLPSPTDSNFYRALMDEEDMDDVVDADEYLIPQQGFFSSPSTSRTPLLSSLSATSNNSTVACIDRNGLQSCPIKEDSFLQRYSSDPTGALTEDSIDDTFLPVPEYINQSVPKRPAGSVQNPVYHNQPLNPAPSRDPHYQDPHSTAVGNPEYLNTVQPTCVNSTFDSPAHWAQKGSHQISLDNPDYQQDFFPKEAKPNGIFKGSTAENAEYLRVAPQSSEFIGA
Serine/threonine-protein kinase PAK 4, sequence (O96013 whole entry): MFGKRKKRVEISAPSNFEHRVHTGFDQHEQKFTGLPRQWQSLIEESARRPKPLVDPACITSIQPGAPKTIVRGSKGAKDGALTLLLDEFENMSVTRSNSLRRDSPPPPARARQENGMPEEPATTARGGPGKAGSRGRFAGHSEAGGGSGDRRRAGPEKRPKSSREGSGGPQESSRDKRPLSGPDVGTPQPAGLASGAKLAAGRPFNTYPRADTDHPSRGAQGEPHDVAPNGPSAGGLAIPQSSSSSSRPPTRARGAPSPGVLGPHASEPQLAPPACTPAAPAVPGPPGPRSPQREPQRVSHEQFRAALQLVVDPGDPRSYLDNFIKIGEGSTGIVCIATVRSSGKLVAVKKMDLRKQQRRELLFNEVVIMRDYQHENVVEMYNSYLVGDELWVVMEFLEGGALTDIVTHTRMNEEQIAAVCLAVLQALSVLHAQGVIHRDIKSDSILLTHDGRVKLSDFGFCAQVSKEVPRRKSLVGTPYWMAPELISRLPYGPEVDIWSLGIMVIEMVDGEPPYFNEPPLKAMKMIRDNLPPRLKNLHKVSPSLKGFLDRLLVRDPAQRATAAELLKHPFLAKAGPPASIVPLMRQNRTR
Serine/threonine-protein kinase pim-1, sequence (P11309 whole entry): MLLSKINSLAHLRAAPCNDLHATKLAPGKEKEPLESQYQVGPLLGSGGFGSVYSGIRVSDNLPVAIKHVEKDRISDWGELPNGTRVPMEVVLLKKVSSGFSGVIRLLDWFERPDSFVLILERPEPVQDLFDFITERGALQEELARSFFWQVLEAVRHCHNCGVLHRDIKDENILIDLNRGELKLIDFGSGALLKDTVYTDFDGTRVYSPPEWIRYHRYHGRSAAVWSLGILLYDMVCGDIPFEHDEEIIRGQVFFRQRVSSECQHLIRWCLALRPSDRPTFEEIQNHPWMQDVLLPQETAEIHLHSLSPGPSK
Glycogen synthase kinase-3 beta, sequence (P49841 whole entry): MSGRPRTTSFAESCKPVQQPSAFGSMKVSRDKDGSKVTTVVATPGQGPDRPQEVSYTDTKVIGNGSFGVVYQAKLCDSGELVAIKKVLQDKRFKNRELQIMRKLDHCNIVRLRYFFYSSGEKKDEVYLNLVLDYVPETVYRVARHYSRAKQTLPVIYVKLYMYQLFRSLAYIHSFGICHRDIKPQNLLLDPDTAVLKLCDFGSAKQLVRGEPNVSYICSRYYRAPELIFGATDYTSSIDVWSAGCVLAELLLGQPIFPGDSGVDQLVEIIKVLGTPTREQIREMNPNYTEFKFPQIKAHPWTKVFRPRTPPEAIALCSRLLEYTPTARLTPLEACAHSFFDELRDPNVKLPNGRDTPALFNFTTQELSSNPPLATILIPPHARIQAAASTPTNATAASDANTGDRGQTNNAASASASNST

SMILES | Ki [1] [nM] | Ki [2] [nM] | Ki [3] [nM] | Ki [4] [nM] | Ki [5] [nM] | Ki [6] [nM] | Ki [7] [nM]
c1ccc(CCNc2nc(-c3ccc4[nH]ncc4c3)cs2)cc1 | 364 | > 8880 | > 3750 | > 5450 | > 8750 |  | 
CCCCNc1c(-c2ccc3[nH]ncc3c2)nc2ncccn12 | 116 | > 8880 | > 3750 | 19 | 114 |  | 
c1ccc(CNc2nc(-c3ccc4[nH]ncc4c3)c(-c3ccccc3)s2)cc1 | 822 | > 8880 | > 3750 | 3400 | > 8750 |  | 
CCNc1nc(-c2ccc3[nH]ncc3c2)cs1 | 888 | > 8880 | > 3750 | 3930 | 1950 |  | 
c1cn2c(NC3CCCCC3)c(-c3ccc4[nH]ncc4c3)nc2cn1 |  |  |  |  | 1850 |  | 
CN(C)CCn1cnc(-c2ccc(F)cc2)c1-c1ccc2[nH]ncc2c1 | > 6000 | > 8880 | > 3750 | > 5450 | > 8750 | 67 | > 1450
c1ccc(-c2c(-c3ccc4[nH]ncc4c3)nc3ncccn23)cc1 | 6 | > 8880 | > 3750 | 10 | 339 |  | 
Nc1nc(-c2ccc3[nH]ncc3c2)cs1 | 909 | > 8880 | > 3750 | 4470 | 2900 |  | 
Fc1ccc(-c2ncn(C3CCN(Cc4ccccc4)C3)c2-c2ccc3[nH]ncc3c2)cc1 (centres undefined) | > 6000 | > 8880 | > 3750 | > 5450 | > 8750 | 8 | > 1450
Fc1ccc(-c2ncn(CCCN3CCOCC3)c2-c2ccc3[nH]ncc3c2)cc1 | > 6000 | > 8880 | > 3750 | > 5450 | > 8750 | 27 | > 1450
Cc1nc(-c2ccc3[nH]ncc3c2)cs1 | 513 | > 8880 | > 3750 | 2860 | 4160 |  | 
c1ccn2c(NC3CCCCC3)c(-c3ccc4[nH]ncc4c3)nc2c1 | 2480 |  |  | 2610 | 2310 |  | 
c1cn2c(NC3CCCCC3)c(-c3ccc4[nH]ncc4c3)nc2s1 | 622 | 5340 |  | 642 | 1290 |  | 
Clc1ccc(Nc2c(-c3ccc4[nH]ncc4c3)nc3ncccn23)cc1 | 1560 | > 8880 | > 3750 | 121 | > 8750 |  | 
c1ccc(Nc2nc(-c3ccc4[nH]ncc4c3)c(-c3ccccc3)s2)cc1 | 1410 | > 8880 | > 3750 | > 5450 | > 8750 |  | 
